Laboratory results as given in patent US4975434A, “Antiviral and anticancer cyclopentenyl cytosine” (priority 1989, dated 1990).
In brackets after ≈: the same amount, converted by molar mass. Several values for one entry are separate records, joined by “and”; a condition that tells them apart may be missing. Equal entries are not always repeated. Entries after “also recorded” stand apart in the source; their conditions may differ.

Legend:
CTP levels = CTP levels in normal and tumor tissue of L1210 bearing mice; type: in vivo, mouse; conditions: normal vs tumor tissue of L1210 bearing mice
M5076 sarcoma = experiment: In vivo antitumor test, M5076 sarcoma in mice
[1] = test system: Vaccinia, strain Lederle CA; experiment: microbe, parasite or virus in culture; type: cell-based
[2] = test system: MRC5 (diploid human embryonic lung cells); experiment: Toxicity to MRC5 host cells (gross cell morphology) in the CMV assay
c-myc mRNA = c-myc mRNA levels in HL-60 cells; type: cell-based, human
[3] = test system: Huf (human diploid foreskin cells); experiment: Toxicity to Huf host cells (gross cell morphology) in the VZV assay; type: cell-based
[4] = test system: malignant human promyelocytic leukemia cell line, HL-60; experiment: Growth inhibition and differentiation of HL-60 cells (nitroblue tetrazolium reduction); type: cell-based
[5] = test system: Punta Toro virus, strain Adames; experiment: microbe, parasite or virus in culture; type: cell-based, Punta Toro virus; host Vero cells
CTP synthesase = experiment: Inhibition of CTP synthesis (CTP synthesase); type: biochemical; conditions: result in words
MX-1 Mammary = experiment: Human tumor xenograft in athymic mice, MX-1 mammary (subrenal capsule); conditions: for % Tumor Inhibition: day 0 to 11; for % tumor weight inhibition: Table IV, QD1-9, day 0 to day 11
[6] = test system: Influenza (Hong Kong), strain A2 /Aichi/2/68; experiment: microbe, parasite or virus in culture; type: cell-based, Influenza virus; host MDCK (Madin Darby canine kidney cells)
[7] = test system: Herpes simplex type 1 (TK+), strain E-377; experiment: Cytopathogenic inhibition test, HSV-1 TK+; type: cell-based
[8] = test system: phosphorylation of uridine; experiment: Inhibition of uridine phosphorylation
Rhinovirus 1A = experiment: Antiviral activity against rhinovirus 1A; type: cell-based; conditions: result in words
LOX Melanoma = experiment: Human tumor xenograft in athymic mice, LOX melanoma (intraperitoneal)
[9] = test system: Vesicular Stomatitis virus, strain Indiana; type: cell-based
Rift Valley Fever virus = conditions: USAMRIID, Fort Detrick
A549 Lung = experiment: Human tumor xenograft in athymic mice, A549 lung (subrenal capsule)
[10] = test system: Varicella-Zoster virus, isolate DM625; experiment: Varicella-Zoster Virus (VZV) Plaque Reduction Assay; type: cell-based
[11] = test system: vaccinia virus (IHD strain); type: in vivo, mouse (CD-I)
[12] = test system: Herpes simplex type 2, strain MS; experiment: Cytopathogenic inhibition test, HSV-2; type: cell-based
[13] = test system: Herpes simplex type 1 (TK-), strain HF; experiment: microbe, parasite or virus in culture; type: cell-based
P388 leukemia = experiment: In vivo antitumor test, P388 leukemia in mice
[14] = test system: Cytomegalovirus, strain AD 169; experiment: Cytomegalovirus (CMV) Yield Reduction Assay; type: cell-based
CTP pools = experiment: Nucleotide (CTP, UTP, ATP, GTP) levels in treated cells (HL-60); type: cell-based, human
[15] = Table II Experiment 1, tumor IP, IP QD1-13, OD 0.5 mg/kg/injection
[16] = Table II Experiment 1, tumor IP, IP QD1-9, OD 1.0 mg/kg/injection
[17] = Table II Experiment 2, tumor IP, IP QD1-9, OD 1.5 mg/kg/injection

## Nc1ccn([C@@H]2C=C(CO)[C@@H](O)[C@H]2O)c(=O)n1 [CPE-C]
CTP levels
  tissue specificity of CTP reduction: some tissuespecificity towards the tumor
M5076 sarcoma; [15]
  % ILS: 5%
  LCK: -2.0 log
M5076 sarcoma; result in words
  activity: inactive
[1]
  potency relative to ara-A: about 100 times
[1]; Orthopoxvirus vaccinia, Vero, in Chlorocebus sabaeus, read-out: ID50
  IC50: 0.1 µg/mL (≈ 0.418 µM)
[1]; Vero cells, strain Lederle CA
  VR (virus rating): 4.6
[1]; result in words
  antiviral activity: very sensitive to CPE-C; also recorded: Potent activity
[2]; 320 μg/ml
  Host cell toxicity (gross cell morphology): Slightly toxic
[2]; each of 100, 32, 10, 3.2 and 1.0 μg/ml
  Host cell toxicity (gross cell morphology): Very slightly toxic
c-myc mRNA
  inhibition of c-myc mRNA levels: more pronounced than the reduction in total cellular RNA synthesis; also recorded: reduction of c-myc RNA levels
[3]; 320 μg/ml
  Host cell toxicity (gross cell morphology): Slightly toxic
[3]; 100 and 32 μg/ml
  Host cell toxicity (gross cell morphology): Very slightly toxic
[4]; continuous exposure for 5 days to 10^-8 to 10^-6 M
  inhibition of cell growth: progressive inhibition of cell growth
[4]; continuous exposure for 5 days to 10^-8 to 10^-6 M, general statement
  differentiation: differentiation to a non-malignant phenotype
[4]; four days after exposure to 10^-7 M
  cell population that reduced nitroblue tetrazolium: 95%
[5]
  VR (virus rating): 1.5
[5]; Punta Toro virus, Vero, read-out: ID50
  IC50: 1.01 µg/mL (≈ 4.22 µM)
[5]; minimum toxic drug concentration / ID50, Vero cells
  TI (therapeutic index): 0.3
[5]; result in words
  antiviral activity: Good activity; also recorded: Virus ratings greater than two
CTP synthesase
  inhibition of CTP synthesis: powerful inhibitors of CTP synthesis
MX-1 Mammary
  growth inhibition: 100%
MX-1 Mammary; MX-1 xenograft
  potency relative to 3DU: about 100 times
MX-1 Mammary; Table III Experiment 1, SRC, IP QD1-9, OD 1.5 mg/kg/injection
  % Tumor Inhibition: 100%
MX-1 Mammary; Table III Experiment 2, SRC, IP QD1-9, OD 2.25 mg/kg/injection
  % Tumor Inhibition: 95%
MX-1 Mammary; CPE-C 1.5 mg/kg
  % tumor weight inhibition: 94%
MX-1 Mammary; CPE-C 2.25 mg/kg
  % tumor weight inhibition: 100%
MX-1 Mammary; result in words
  activity: complete inhibition of tumor growth
[6]
  VR (virus rating): 2.4
  antiviral activity: Good activity; also recorded: Virus ratings greater than two
[6]; MDCK, in Canis lupus familiaris, read-out: ID50
  IC50: 18.2 µg/mL (≈ 76.1 µM)
[7]; Human alphaherpesvirus 1, Vero cells, strain E-377, inhibition of virus-induced cytopathogenic effects, read-out: ID50 (the source's name)
  IC50: 0.3 µg/mL (≈ 1.25 µM)
[7]; Vero cells, strain E-377
  VR (virus rating): 3.8
[7]; result in words
  antiviral activity: greater than arabinosyl adenine (ara-A); also recorded: Potent activity
[8]
  inhibition of phosphorylation of uridine: inhibited competitively the phosphorylation of uridine
Rhinovirus 1A
  antiviral activity: Activity was not seen
LOX Melanoma; 2.25 mg/kg, QD 1-9
  tumor cell kill: two-log tumor cell kill
LOX Melanoma; LOX xenograft
  potency relative to 3DU: about 100 times
LOX Melanoma; Table III Experiment 1, tumor IP, IP QD1-9, OD 1.0 mg/kg/injection
  % ILS: 119%
LOX Melanoma; Table III Experiment 2, tumor IP, IP QD1-9, OD 2.25 mg/kg/injection
  % ILS: 80%
LOX Melanoma; Table IV, CPE-C 1.5 mg/kg, QD1-9
  % ILS: 58%
LOX Melanoma; Table IV, CPE-C 2.25 mg/kg, QD1-9
  % ILS: 80%
LOX Melanoma; in vivo
  difference in tumor burden between CPE-C and 3DU: five-log difference in tumor burden
LOX Melanoma; intraperitoneally implanted
  increase in life span: about 100%
LOX Melanoma; result in words
  activity: Good activity
[9]; L929 cells, strain Indiana, two determinations
  VR (virus rating): 2.4 and 3.0
[9]; minimum toxic drug concentration / ID50, L929 cells
  TI (therapeutic index): 0.6 and 0.4
[9]; result in words
  antiviral activity: Good activity; also recorded: Virus ratings greater than two
Rift Valley Fever virus
  antiviral activity: particularly active
A549 Lung
  growth inhibition: 100%
A549 Lung; A549 experiments 1 and 2, 1.5 and 2.0 mg/kg/injection, each group of six mice
  Toxicity: weight loss and deaths: weight loss and one or two deaths
A549 Lung; Table III Experiment 1, SRC, IP QD1-9, OD 1.5 mg/kg/injection, day 0 to 11
  % Tumor Inhibition (negative value denotes tumor regression): -59%
A549 Lung; Table III Experiment 2, SRC, IP QD1-9, OD 2.0 mg/kg/injection, day 0 to 11
  % Tumor Inhibition: 92%
[10]; Human alphaherpesvirus 3, 144 h, 0.01 μg/ml, Huf cells
  inhibition at 0.01 µg/mL: 0%
[10]; Human alphaherpesvirus 3, 144 h, 0.032 μg/ml, Huf cells
  inhibition at 0.032 µg/mL: 3%
[10]; Human alphaherpesvirus 3, 144 h, 0.1 μg/ml, Huf cells
  inhibition at 0.1 µg/mL: 21%
[10]; Human alphaherpesvirus 3, 144 h, 0.32 μg/ml, Huf cells
  inhibition at 0.32 µg/mL: 33%
[10]; Human alphaherpesvirus 3, 144 h, 1.0 μg/ml, Huf cells
  inhibition at 1 µg/mL: 36%
[10]; Human alphaherpesvirus 3, 144 h, 3.2 μg/ml, Huf cells
  inhibition at 3.2 µg/mL: 33%
[10]; Human alphaherpesvirus 3, 144 h, 10 μg/ml, Huf cells
  inhibition at 10 µg/mL: 33%
[10]; Human alphaherpesvirus 3, 144 h, 100 μg/ml, Huf cells
  inhibition at 100 µg/mL: 41%
[10]; Human alphaherpesvirus 3, 144 h, 320 μg/ml, Huf cells
  inhibition at 320 µg/mL: 36%
[10]; result in words
  antiviral activity: Potent activity; also recorded: Activity was observed for both compounds
[11]; 1.5 mg/kg
  activity in vivo, mouse tail pox model: good protection; also recorded: Excellent activity
[11]; CPE-C 1.5 mg/kg, QD 1-7 subcutaneous, PBS control 45.8
  Pox Count (mean value, 20 mice): 0.8
[12]; Human alphaherpesvirus 2, Vero cells, strain MS, inhibition of virus-induced cytopathogenic effects, read-out: ID50 (the source's name)
  IC50: 2.7 µg/mL (≈ 11.3 µM)
[12]; Vero cells, strain MS
  VR (virus rating): 2.3
[12]; result in words
  antiviral activity: Potent activity
[13]; Vero cells, strain HF, two determinations
  VR (virus rating): 3.8 and 2.7
[13]; result in words
  antiviral activity: greater than arabinosyl adenine (ara-A); also recorded: Potent activity
P388 leukemia; [16]
  % ILS: 88%
  LCK: 0.9 log
P388 leukemia; [17]
  % ILS: 69%
  LCK: 0.1 log
P388 leukemia; result in words
  activity: only modest activity
[14]; Human betaherpesvirus 5, 144 h, 0.1 μg/ml, MRC5 cells, read-out: Reduction in Virus Yield
  log reduction at 0.1 µg/mL: 0.8
[14]; Human betaherpesvirus 5, 144 h, 0.32 μg/ml, MRC5 cells, read-out: Reduction in Virus Yield
  log reduction at 0.32 µg/mL: 1.3
[14]; Human betaherpesvirus 5, 144 h, 1.0 μg/ml, MRC5 cells, read-out: Reduction in Virus Yield
  log reduction at 1 µg/mL: 1.4
[14]; Human betaherpesvirus 5, 144 h, 3.2 μg/ml, MRC5 cells, read-out: Reduction in Virus Yield
  log reduction at 3.2 µg/mL: 1.5
[14]; Human betaherpesvirus 5, 144 h, 10 μg/ml, MRC5 cells, read-out: Reduction in Virus Yield
  log reduction at 10 µg/mL: 1.9
[14]; Human betaherpesvirus 5, 144 h, 32 μg/ml, MRC5 cells, read-out: Reduction in Virus Yield
  log reduction at 32 µg/mL: 2
[14]; Human betaherpesvirus 5, 144 h, 100 μg/ml, MRC5 cells, read-out: Reduction in Virus Yield
  log reduction at 100 µg/mL: 2
[14]; Human betaherpesvirus 5, 144 h, 320 μg/ml, MRC5 cells, read-out: Reduction in Virus Yield
  log reduction at 320 µg/mL: 5.3
[14]; result in words
  antiviral activity: Potent activity; also recorded: Activity was observed for both compounds
CTP pools; HL-60
  CTP levels following drug removal: sustained reduction in CTP levels
CTP pools; during CPE-C treatment
  level of CTP: rapid and pronounced inhibition
CTP pools; during CPE-C treatment, HL-60
  half-life for the disappearance of CTP: 1.5 to 2 h
  level of UTP, ATP or GTP: not of UTP, ATP or GTP
CTP pools; treated cells
  level of CTP pools: near total abrogation of CTP pools
